# Patent US20260357349A1, “METHODS OF IDENTIFYING AND TREATING CANCER” (Agency for Science, Technology and Research, priority 2022, published 2026)
# Columns and labels:
# RELA = experiment: Total RELA protein level after bortezomib; assay type: cell-based, human; conditions: bortezomib treatment
# Description: Data are presented as median+/−25%. Lower whisker is smallest observation greater than or equal to 25% quantile-1.5*interquantile range (IQR). Upper whisker represents the largest observation less than or equal to 75%+1.5*IQR. Amount of normalized RELA protein in the c) input or d) co-immunoprecipitated with SMARCA4 from 3 independent runs. […]
# Cell lines were harvested with cold RIPA lysis buffer (50 mM Tris pH 8, 150 mM NaCl, 0.1% Triton X-100, 0.5% Sodium deoxycholate, 0.1% SDS) with protease inhibitors (Roche) on ice. […] Protein concentration was measured by Pierce BCA protein assay (Life Technologies). […]
# 786-O cells = experiment: Colony formation, 786-O isogenic cells; assay type: cell-based, human
# Description: Colony formation of parental (WT) or PBRM1 knockout (KO) 786-O cells expressing shRNA against non-targeting control (NC), RELA, or NFKB1 cultured with a) 10% or b) 2% serum. c) Gene expression changes of NF-κB target genes in 786-O cells treated with 0.006 μM bortezomib (BTZ) or 0.6 µM Bay 11-7085 for 24 hours (n=3 technical replicates). * p-value<0.05 (two-sided t-test). […] A positive log fold change refers to gain in bortezomib treatment over DMSO. g) Colony formation of 786-O isogenic cells and h) NCC432 isogenic cells treated with bortezomib for a week. Tumor formation of isogenic 786-O cells (i) and NCC432 cells (j) treated with PBS control or 0.5 mg/kg bortezomib (BTZ) in NSG mice. (n=10 tumors per group for 786-O, and n=16 tumors for NCC432 PBS EV group and 12 tumors for NCC432 PBS PBRM1 group and 14 tumors for both NCC432 EV and PBRM1 BTZ groups). Data are presented as mean values+/−SEM. k) Model for the study.
# Data are presented as median+/−25%. […] Data are presented as mean values+/−SD. e) Tornado plots of RELA and SMARCA4 ChIP-seq signals in parental 786-0 or PBRM1-KO 786-O cells treated with DMSO or 0.005 μM bortezomib for 9 hours. f) Kaplan-Meier curves of NSG mice bearing 786-O isogenic cells treated with PBRM1 control or 0.5 mg/kg bortezomib (WT: n=10 PBS arm, median survival=39 days; n=10 bortezomib arm, median survival=52 days, HR=4.1, p=3E-6, log rank test; KO: n=10 PBS arm, median survival=35 days, n=10 bortezomib arm, median survival=66 days, HR=4.1, p=3E-6, log rank test). g) Kaplan-Meier curves of NSG mice bearing NCC432 isogenic cells treated with PBRM1 control or 0.5 mg/kg bortezomib (EV: n=16 PBS arm, median survival=42 days; n=14 bortezomib arm, median survival=49 days, HR=2.5, p=0.0009, log rank test; PBRM1: n=12 PBS arm, median survival=55 days; n=14 bortezomib arm, median survival=58 days, HR=1.2, p=0.5, log rank test). h) 786-O PBRM1 WT or KO cells were screened against the high-specific SGC epigenetic probe collection and cell viability was measured by colony formation after 1 week of treatment relative to DMSO control. […]
structure (smiles),measurement,setting,value
CC(C)C[C@H](NC(=O)[C@H](Cc1ccccc1)NC(=O)c1cnccn1)B(O)O [bortezomib],effect on total protein levels of RELA,RELA,did not significantly affect
same,reducing colony formation,"786-O cells; 786-O with and without PBRM1, vs DMSO",reducing colony formation
same,"reduction of colony formation, PB1-deficient vs PB1-proficient isogenic cells","786-O cells; 786-O, a week",preferential reduction of colony formation
